Tested on: Candida albicans biofilms
Experiment: Biofilm inhibitory activity by confocal laser scanning microscopy (SYTO 9 / PI staining)
Type: cell-based
Conditions: 5 minutes treatment, 1.2 mM each component
Procedure: Candida albicans biofilms were formed on a stainless-steel coupon. Specifically, the […] were immersed in 90% (v/v) ethanol for 30 minutes for decontamination of stainless-steel coupons (1.5×1.0 cm2) and washed with sterile distilled water. Then, stainless-steel coupons were placed in a 12-well tissue culture plate containing 4.95 mL of SDB enrichment medium, and 50 uL of the mixed suspensions of albicans were dispensed and cultured at 30° C. for 48 hours to form Candida albicans biofilms. After forming the biofilm on each coupon, weakly attached cells, not the biofilm, were separated using 0.85% sterile physiological saline.
The antifungal activity of the antimicrobial mixture of the present disclosure was confirmed through confocal laser scanning microscopy analysis. For the biofilms of Candida species treated with each antimicrobial mixture, intact cells were stained with green fluorescent SYTO®9 (S-34854, Molecular Probes™, Thermo Fisher Scientific Inc., Pittsburgh, PA, USA; final concentration: 6.7 μM; excitation: 488 nm, emission: 498/501 nm), and damaged cells were detected by staining with red fluorescent propidium iodide (PI; P3566, Molecular Probes™; final concentration: 15 μM; excitation: 555 nm, emission: 617 nm). […]

CC(O)CO (centres unmarked) [compound 2, propylene glycol]
damage to the fungal cell membrane in the biofilms (SYTO 9 green / PI red fluorescence) (5° C., FIGS. 4A-4F): did not show significant damage to the fungal cell membrane | damage to the fungal cell membrane in the biofilms (SYTO 9 green / PI red fluorescence) (22° C., FIGS. 5A-5F): did not show significant damage to the fungal cell membrane
